This note sets out measurements from patent US5759556A, “Skin care compositions containing certain cyclic aliphatic unsaturated compounds and retinol or retinyl ester” (Chesebrough-Pond's USA Co., Division of Conopco, Inc., priority 1996, dated 1998).

In experiment [1] the test system is keratinocytes. The experiment in a line: Transglutaminase assay and keratinocyte differentiation, TGase normalized to DNA (Example 1B). The experiment is classed as cell-based, Human. The note with it: for keratinocyte differentiation / transglutaminase level (in words): […]10^-7 M, […]10^-8 M and […]10^-9 M, vs ethanol control; for mean TGase/DNA × 10^-4 ± s.d: 72 hours, n = 3. The procedure:
(§1) Human keratinocytes, isolated from neonatal foreskin by trypsin treatment were grown in Dulbecco Modification Eagle (DME) Hams F12 (1:1) medium/10% fetal calf serum in the presence of irradiated 3T3 mouse fibroblasts for establishing dividing keratinocyte colonies. Cells were grown under the above condition until their second passage and kept frozen for future use. Frozen second passage keratinocytes were thawed and plated into the above medium and grown for five days before they were switched to a serum-free MCDB 153-based medium keratinocyte growth medium (KGM) from Clonetics Corporation, San Diego, Calif., containing 0.15 mM Ca, or keratinocyte serum-free media (KSFM) from GIBCO containing 0.09 mM Ca). On day 7, when the cells were 80-90% confluent, they were trypsinized and plated in the serum-free medium for the various experiments.
(§2) During the process of terminal differentiation in the epidermis, a 15 nm thick layer of protein, known as the cornified envelope (CE) is formed on the inner surface of the cell periphery. The CE is composed of numerous distinct proteins which have been cross-linked together by the formation of N ^ε -(γ-glutamyl) lysine isodipeptide bonds catalyzed by the action of at least two different transglutaminases (TGases) expressed in the epidermis. TGase I is expressed in abundance in the differentiated layers of the epidermis, especially the granular layer, but is absent in the undifferentiated basal epidermis. Thus TGase I is a useful marker of epidermal keratinocyte differentiation with high TGase I levels indicating a more differentiated state. An ELISA based TGase I assay, using a TGase I antibody, was used to assess the state of differentiation of the cultured keratinocytes in the examples that follow.
Keratinocytes (cultured as described above) were plated in 96 well plates at a density of 3,000 cells per well in 200 μl media. After incubation for four days the media was changed to media containing test compounds (six replicates per test). The cells were cultured for a further 72 hours after which time the media was aspirated and the plates stored at -70° C. Plates were removed from the freezer, and the cells washed with PBS. 100 μl sterile water was added and the cells were freeze fractured by freezing at -70° C. then thawing. The cells were incubated for one hour at room temperature (R/T) with PBS/3% BSA (wash buffer, bovine serum albumin), then rinsed with a fresh aliquot of wash buffer. Cells were incubated with 50 μl of primary antibodies monoclonal anti-human transglutaminase mouse antibody (IgG) obtained from Biomedical Industries diluted 1:2,000 in wash buffer for one hour, 37° C. then rinsed two times with wash buffer. Cells were then incubated with 50 μl of secondary antibody (Fab fragment, peroxidase conjugated anti-mouse IgG obtaining from Amersham) diluted 1:4,000 in wash buffer for one hour at 37° C., then rinsed two times with wash buffer. […] The absorbance of samples was read at 492 nm in the plate reader. […] TGase levels were determined by subtracting background from the readings from each treatment and determining mean±s.d. for the replicates exposed to both Ab.
The level of TGase-1 detected after treatment of the cells could be influenced by cell number, i.e., the greater the number of cells the greater the level of TGase-1 detected. […]

In experiment [2] the test system is keratinocytes. The experiment in a line: Transglutaminase assay, keratinocyte differentiation (Example 4), normalized to DNA. The experiment is classed as cell-based, Human. The note with it: for activity at […]: .00025 mM; for effect on transglutaminase / keratinocyte differentiation (in words): Table D, both experiments; for activity at 1000 µM: 1 mM. The procedure:
as §1, §2
Keratinocytes (cultured as described above) were plated in 96 well plates at a density of 3,000 cells per well in 200 μl of cell culture media. After incubation for four days, the media was changed to media containing test compounds (six replicates per test). The cells were cultured for a further 72 hours after which time the media was aspirated and the plates stored at -70° C. After the plates were removed from the freezer, the cells were further freezed fractured by freezing and thawing and then washed 3× with PBS. The cells were incubated for one hour at room temperature (R/T) with TBS/5% BSA buffer. Cells were then incubated with 100 μl of monoclonal anti-human transglutaminase (IgG) mouse antibody (primary antibody) obtained from Biomedical Technologies Inc. diluted 1:2000 in TBS/1% BSA buffer for two hours at 37° C., and then rinsed six times with wash buffer (TBS/1% BSA/0.05% Tween-20). Cells were next incubated with 100 μl of Fab fragment, peroxidase conjugated anti-mouse IgG antibody (secondary antibody) from Amersham diluted 1:4,000 in wash buffer for two hours at 37° C. and then rinsed three times with wash buffer and three times with PBS. Cells were incubated with substrate solution (4 mg o-phenylene diamine and 3.3 μl 30% H2 O2 in 10 mL 0.1M citrate buffer, pH 5.0) for five minutes at R/T and in darkness (under aluminum foil). The reaction was stopped by the addition of 50 μl 4N H2SO4. The absorbance of samples was read at 492 nm in the plate reader. Out of the six replicates, four were treated with both antibodies, two were treated only with the secondary antibody (i.e., to determine the background binding of the enzyme conjugated antibody). Transglutaminase I levels were determined by subtracted background from the readings from each treatment and determining the mean s.d. for the replicates exposed to both antibodies.
The level of TGase-1 detected after treatment of the cells could be influenced by cell number, i.e., the greater the number of cells the greater the level of TGase-1 detected. The level of TGase-1 was normalized to DNA content of the cells in the same well thus eliminating variation due to differences in cell number. […]

In experiment [3] the test system is keratinocytes. The experiment in a line: 3H-Thymidine incorporation and keratinocyte proliferation (Example 1A). It counts as cell-based, Human. Conditions: for mean Thymidine incorp./μg protein ± s.d: 24 hours, n = 3. The procedure:
as §1
The incorporation of ^3 H-thymidine by cultured keratinocytes was used as an assay of keratinocyte proliferation. Thymidine is one of four deoxynucleosides which are the monomeric units of DNA, the universal library of genetic information in the animal kingdom. Prior to cell division of a somatic cell such as a keratinocyte, the complete genome of the cell undergoing cell division is replicated. This involves large scale DNA synthesis by the cell and enables both daughter cells to receive identical copies of the genetic material. When ^3 H-thymidine is included in the culture media of keratinocytes which are synthesizing DNA in preparation for cell division then the labelled nucleoside is incorporated into the newly synthesized DNA. The extent of incorporation of ^3 H-thymidine into a population of cells is proportional to the rate of DNA synthesis by this population of cells and therefore an indication of their cellular proliferation.
Keratinocytes (that were cultured as described above) were plated in 24 well plates at a density of about 20,000 cells per well in 1 ml media. After incubation for four days or until the cells were 60-70% confluent, the media was changed. Test compounds were added (in triplicate) to the wells 24 hours after the media change, and four hours later 1μCi ^3 H-Thymidine in 50 μl media was added per well. Cells were incubated for a further 24 hours. Media was removed from the cells, 10% ice cold trichloroacetic acid (TCA) added and plates were incubated on ice for 30 minutes. Cells were washed five times with 5% TCA and allowed to dissolve in 500 μl 0.1M NaOH for at least one hour (usually overnight). The preparations were neutralized with 0.1M HCl; 50 μl of the cell preparation was used to determine total protein content. Disintegrations per minute (DPM) from ^3 H labelling of DNA was determined by liquid scintillation counting of 900 μl of the cell preparation. Thymidine incorporation results were expressed as DPM/μg protein.
Background: Incorporation of labelled thymidine or its analogues reports DNA synthesis.

In another experiment the target is T1, LRAT (Bos taurus, UniProt Q9BGL2).
T1 construct: microsomal fraction isolated from bovine retinal pigment epithelial cells; from tissue; host or cells: bovine retinal pigment epithelial cells, microsomal fraction
T1 sequence (Q9BGL2 1-230): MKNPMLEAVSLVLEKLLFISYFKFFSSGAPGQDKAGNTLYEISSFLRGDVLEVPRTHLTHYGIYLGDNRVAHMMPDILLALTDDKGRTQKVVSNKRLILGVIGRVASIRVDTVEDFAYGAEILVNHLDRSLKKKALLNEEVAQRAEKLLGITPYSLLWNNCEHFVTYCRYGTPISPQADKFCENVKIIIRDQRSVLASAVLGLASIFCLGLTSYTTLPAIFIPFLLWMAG
Description: In vitro microsomal esterification of retinol, LRAT catalyzed (retinyl laurate formation). The experiment is classed as biochemical, bovine. Conditions: for inhibition at 10 µM: Table B.

Where [4] appears, read: Homo sapiens, Keratinocyte, Experiment 2, read-out: Transglutaminase level, % CONTROL.

Like-named read-outs stand apart in the source and are kept apart here.

Description for LRAT: A solution containing 0.1M sodium phosphate pH 7 buffer, 5 mM dithiothreitol, 2 mg/ml bovine serum albumin, 40 micromolar palmitoyl CoA, 40 micromolar dilauroyl phosphatidyl choline, 10 micromolar retinol and a test compound or a solvent blank, is incubated for 1 hour at 37° C. with a microsomal fraction isolated from bovine retinal pigment epithelial cells. After incubation, the reaction was quenched by addition of an equal volume of ethanol, and the retinyl esters formed (retinyl laurate from the LRAT catalyzed reaction and retinyl palmitate from ARAT catalyzed reaction) are extracted with hexane.
A solution containing 0.1M sodium phosphate pH 7 buffer, 5 mM dithiothreitol, 2 mg/ml bovine serum albumin, 40 micromolar palmitoyl CoA, 40 micromolar dilauroyl phosphatidyl choline, 10 micromolar retinol and a test compound or solvent blank, was incubated for 1 hour at 37° C. with a microsomal fraction isolated from bovine retinal pigment epithelial cells. After incubation, the reaction was quenched by addition of an equal volume of ethanol, and the retinyl esters formed (retinyl palmitate from the ARAT catalyzed reaction, and retinyl laurate from the LRAT catalyzed reaction) were extracted with hexane.
The compounds in Table A were tested at a 100 μM concentration.

As to `CC1=C(/C=C/C(C)=C/C=C/C(C)=C/C(=O)O)C(C)(C)CCC1` [Retinoic acid], the “keratinocyte differentiation / transglutaminase level (in words)” value with keratinocytes [1] is reported as “decreased keratinocyte differentiation”. Further, the activity at […] is 24% in the experiment with keratinocytes [2] (Homo sapiens, Keratinocyte, read-out: Transglutaminase level, % CONTROL, Experiment 1) and 8% with keratinocytes [2] (Homo sapiens, Keratinocyte, read-out: Transglutaminase level, % CONTROL, Experiment 2). The “keratinocyte proliferation (in words)” value in the experiment on keratinocytes [3] ([…]10^-7 M, […]10^-8 and […]10^-9 M, over ethanol control and each retinol treatment) is “significantly increased keratinocyte proliferation”. The “mean Thymidine incorp./μg protein ± s.d” value was found to be 2475 ± 116 DPM/μg protein in the experiment on keratinocytes [3] ([…] 10^-7 M), 2686 ± 72 DPM/μg protein in the experiment with keratinocytes [3] ([…] 10^-8 M) and 2556 ± 80 DPM/μg protein in the experiment with keratinocytes [3] ([…] 10^-9 M).

For `CC1=C(/C=C/C(C)=C/C=C/C(C)=C/CO)C(C)(C)CCC1` [Retinol], in the experiment on keratinocytes [1], the “keratinocyte differentiation / transglutaminase level (in words)” value was “The decrease in transglutaminase level was dose dependent”. Further, the “mean TGase/DNA × 10^-4 ± s.d” value in the experiment with keratinocytes [1] ([…] 10^-7 M) is 1.14 ± 0.22 × 10^-4; in the experiment on keratinocytes [1] ([…] 10^-8 M) it was 1.89 ± 0.30 × 10^-4; in the experiment with keratinocytes [1] ([…] 10^-9 M), 2.70 ± 0.59 × 10^-4. Further, the activity at 1 µM in the experiment on keratinocytes [2] (Homo sapiens, Keratinocyte, Experiment 1, .001 mM, read-out: Transglutaminase level, % CONTROL) was determined as 67%. Besides, in the experiment on keratinocytes [2] (setting [4]), the activity at […] was determined as 63.5%. The “effect on transglutaminase / keratinocyte differentiation (in words)” value in the experiment with keratinocytes [2] is “not very effective”. The figures for the “mean Thymidine incorp./μg protein ± s.d” value in the experiment with keratinocytes [3] ([…] 10^-7 M), in the experiment on keratinocytes [3] ([…] 10^-8 M) and in the experiment with keratinocytes [3] ([…] 10^-9 M) were 2218 ± 73 DPM/μg protein, 2034 ± 46 DPM/μg protein and 1977 ± 19 DPM/μg protein, respectively.

`C=CCCC(=O)/C=C/C1C(C)=CCCC1(C)C` (stereo not drawn) [allyl alpha ionone] yielded an inhibition at 10 µM against LRAT of 17%.

`C/C=C/C(=O)C1C(C)=CCCC1(C)C` (stereo not drawn) [alpha damascone]: the activity at 1000 µM in the experiment with keratinocytes [2] (Homo sapiens, Keratinocyte, Experiment 1, read-out: Transglutaminase level, % CONTROL) was determined as 92%; with keratinocytes [2] (setting [4]), 86%. The “effect on transglutaminase / keratinocyte differentiation (in words)” value in the experiment on keratinocytes [2] is given as “not very effective”.

Turning to `C/C=C/C(=O)C1C(C)=CC=CC1(C)C` (stereo not drawn) [damascenone], the inhibition at 100 µM against LRAT (Table A, 100 μM) is 79%. At 10 µM the inhibition against LRAT was 29%.

As for `CC(=O)CCC1C(C)=CCCC1(C)C` (stereo not drawn) [dihydro alpha ionone], the inhibition at 100 µM against LRAT (Table C (comparative), 100 μM) was found to be 18%.

In turn, `C=C1CCCC(C)(C)C1/C=C/C(=O)CC` (stereo not drawn) [gamma methyl ionone] gave an inhibition at 100 µM on LRAT (Table A, 100 μM) of 38%.

With `CC(C)[C@@H]1CC[C@@H](C)CC1=O` [mentone], the “% INHIBITION, LRAT” value on LRAT (Table C (comparative), 100 μM) is 0%.

In the case of `CCCC(O)CCC1C(C)CCCC1(C)C` (stereo not drawn) [timberol], at LRAT (Table A, 100 μM), 100 µM produced 33% inhibition.

Usually inhibition stands for the share of the control response that was lost under treatment. The low end stands for a weak effect, the high end for a strong effect.
